The structures appear in SMILES notation.

Data set [1] has as its system Trypanosoma brucei brucei. Description: Trypanocidal activity against Trypanosoma brucei brucei 427 bloodstream form assessed as inhibition of parasite proliferation after 72 hr by Lilit Alamar Blue method. Type of data set: functional, organism-based.
The nature of data set [2]: Selectivity index, ratio of LC50 for Artemia salina larvae to IC50 for Trypanosoma brucei brucei 427 bloodstream form.
The nature of data set [3]: Toxicity against Artemia salina (brine shrimp) larvae assessed as mortality after 24 hr. Particulars: in vivo; call rule not given here. It counts as organism-based.
[4] abbreviates: Trypanosoma brucei, 427, 72 h, read-out: IC50.

In the case of `C/C(=N/NC(N)=S)c1ccccc1` [ACETOPHENONE-THIOSEMICARBAZONE], the IC50 in data set [1] (setting [4]) is 212 µM.
`NC(=S)N/N=C\c1cccc(Br)c1`: in data set [1] (setting [4]), the IC50 came to 136 µM.
Take `Cc1ccccc1/C=N\NC(N)=S`: the IC50 in data set [1] (setting [4]) was determined as 222 µM.
With `C/C(=N/NC(N)=S)c1ccc2ccccc2c1` [ACETONAPHTHONE-THIOSEMICARBAZONE], the Ratio LC50/IC50 in data set [2] came out at 50. The LC50 at 24 h in data set [3] amounted to 481 µM. Besides, the IC50 in data set [1] (setting [4]) is 9.62 µM.
As to `C/C(=N/N=C(\N)S)C12CC3CC(CC(C3)C1)C2`, in data set [2], the Ratio LC50/IC50 is 14.2. Moreover, the LC50 at 24 h in data set [3] stood at 119 µM. The IC50 in data set [1] (setting [4]) came to 8.38 µM.
As for `COc1ccc(/C=N\NC(N)=S)cc1`, the 50% inhibitory concentration (IC50) in data set [1] (setting [4]) was 259 µM.
On to `NC(=S)N/N=C\C=C\c1ccccc1`, for which the IC50 in data set [1] (setting [4]) stood at 76.3 µM.
As for `NC(=S)N/N=C\c1cc(Cl)ccc1O`, the IC50 in data set [1] (setting [4]) worked out at 45.6 µM.
As for `NC(S)=NN=C(Cc1ccccc1)Cc1ccccc1`, the half-inhibitory concentration (IC50) in data set [1] (setting [4]) was 147 µM.
Turning to `NC(=S)N/N=C\c1cccc(Cl)c1`, the IC50 in data set [1] (setting [4]) is 164 µM.
Take `C/C(=N/NC(=S)Nc1ccccc1)c1ccc(Cl)cc1`: the Ratio LC50/IC50 in data set [2] is 110. In data set [3], the LC50 at 24 h came to 438 µM. Also, the IC50 in data set [1] (setting [4]) turned out to be 3.97 µM.
Turning to `C/C(=N/NC(=S)Nc1ccccc1)c1ccc(Br)cc1`, the Ratio LC50/IC50 in data set [2] stood at 25.9. For the same molecule, in data set [3], the LC50 at 24 h was 134 µM. Further, the IC50 in data set [1] (setting [4]) is 5.19 µM.
`C/C(=N/NC(N)=S)c1ccc(Br)cc1`: the IC50 in data set [1] (setting [4]) turned out to be 26.9 µM.
On to `NC(=S)N/N=C\c1ccccc1Cl`, for which, in data set [1] (setting [4]), the half-maximal inhibitory concentration (IC50) stood at 220 µM.
In the case of `NC(=S)N/N=C\c1ccc(Cl)cc1`, in data set [1] (setting [4]), the IC50 was 82.6 µM.
With `C/C(=N/NC(N)=S)c1cccc(Br)c1`, the IC50 in data set [1] (setting [4]) was 70.4 µM.
For `NC(=S)N/N=C\c1ccccc1` [BENZALDEHYDE-THIOSEMICARBAZONE], the IC50 in data set [1] (setting [4]) stood at 444 µM.
Take `COc1ccc(/C(C)=N\NC(N)=S)cc1`: the IC50 in data set [1] (setting [4]) is 91.1 µM.
Still for that read-out and setting: for `C/C(=N/N=C(\N)S)c1ccc(Cl)cc1` [P-CHLOROPHENYL(METHYL)THIOSEMICARBAZONE] the value was 11.1 µM.
For the molecule `COc1ccc(/C(C)=N\NC(N)=S)cc1OC`, the IC50 entry in data set [1] is reported as “Not Active”.
Regarding `CN(C)c1ccc(/C=C/C=N\NC(N)=S)cc1`, the IC50 in data set [1] (setting [4]) came to 17.7 µM.
Turning to `COc1cc(/C(C)=N\NC(N)=S)cc(OC)c1OC`, the IC50 result in data set [1] is “Not Active”.
As to `NC(=S)NN=C(c1ccccc1)c1ccccc1` [BENZOPHENONE-THIOSEMICARBAZONE], in data set [1] (setting [4]), the IC50 amounted to 68.3 µM.
In the case of `C=C(C)C1CC=C(C)/C(=N/NC(N)=S)C1` (stereo not drawn) [CARVONE-THIOSEMICARBAZONE], the IC50 in data set [1] (setting [4]) turned out to be 39.7 µM.
The same measure, in the same setting: the figure for `NC(=S)N/N=C\CCc1ccccc1` is 260 µM; for `C/C(=N/NC(N)=S)c1ccccc1Cl` it is 199 µM; for `NC(=S)N/N=C\c1ccccc1O` it is 170 µM.
Turning to `C/C(=N/NC(=S)Nc1ccccc1)c1ccc2ccccc2c1`, the IC50 result in data set [1] is “ND(Insoluble)”.
Take `Cc1ccc(/C=N\NC(N)=S)cc1`: the IC50 in data set [1] (setting [4]) was 124 µM.
`CC/C(=N/NC(N)=S)c1ccc(OC)cc1`: the IC50 in data set [1] (setting [4]) is 132 µM.

(Values after ChEMBL document CHEMBL3046454, “Structureactivity relationship study of thiosemicarbazones on an African trypanosome: Trypanosoma brucei brucei” (Med Chem Res, 2013).)
